Test results published in article PMC9233675, “Ru(II) photocages enable precise control over enzyme activity with red light” (Nature Communications, 2022).
Changes are numbered by the printed parent chain.

Experiments:
CYP1B1 F134L = target: T1, CYP1B1 F134L (Homo sapiens, UniProt Q16678, F134L)
T1 sequence (Q16678 1-543 F134L): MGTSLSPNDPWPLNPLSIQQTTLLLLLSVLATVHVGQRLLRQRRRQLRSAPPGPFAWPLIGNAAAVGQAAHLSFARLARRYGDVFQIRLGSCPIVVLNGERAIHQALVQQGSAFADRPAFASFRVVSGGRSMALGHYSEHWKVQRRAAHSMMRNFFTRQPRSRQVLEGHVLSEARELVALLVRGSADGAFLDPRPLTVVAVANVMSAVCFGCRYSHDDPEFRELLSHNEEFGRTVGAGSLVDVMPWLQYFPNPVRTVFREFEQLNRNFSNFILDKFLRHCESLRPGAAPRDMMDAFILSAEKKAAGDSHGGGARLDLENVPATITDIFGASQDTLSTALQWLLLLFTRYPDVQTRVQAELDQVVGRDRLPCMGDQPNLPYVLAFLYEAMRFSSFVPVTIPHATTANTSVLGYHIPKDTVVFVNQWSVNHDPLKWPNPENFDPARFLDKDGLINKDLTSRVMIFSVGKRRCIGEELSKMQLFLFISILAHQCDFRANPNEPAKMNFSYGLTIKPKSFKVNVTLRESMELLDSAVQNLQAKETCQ
Source text: (§1) Site directed mutagenesis was used to probe the importance of specific active-site contacts identified through the structural assessment (Fig. 3a, b) and simulations. In all cases, conservative mutations were made to maintain polar or hydrophobic character and approximate size. The aromatic residues that frame the inhibitor binding site, Phe143 and Phe231, were mutated to Leu to determine the importance of the π interactions. In addition, the Ser127 residue, located in the upper corner of the active site on the B-C loop, was chosen for mutation based on the simulations. This amino acid transiently contacts the inhibitors, but also forms a hydrogen bond with Asp326 of the I-helix, and thus may impact the position of this helix with regards to the B-C loop. […] Rather than directly mutating these residues in the I-helix, neighboring residues Gln332 and Asp333 were targeted, with the hope of interrupting amino acid interactions that position the helix within the active site.
(§2) The ratio of IC50 values for the WT vs. the mutant are shown in Fig. 3c and reflects the importance of the specific contact; the log of the value is used to aid in visualization.
(§3) Cell lines were seeded onto Geltrex coated 96-well plates at 40,000 cells/well, and grown overnight in DMEM media containing 1 μg/mL tetracycline. The media was then replaced with Opti-MEM supplemented with 2% FBS and 1 μg/mL tetracycline. Compounds were serially diluted in Opti-MEM supplemented with 2% FBS and 1 μg/mL tetracycline and an equal volume of compound added to the cells (n = 3). Following a 1 h incubation, resorufin ethyl ether (REE; for CYP1B1 and 1A1) or dibenzylfluorescein (DBF; for 19A1) was added to the cells for a total concentration of 5 μM for REE and 1 μM for DBF. […] Dose–response curves were generated in Prism and normalized using the no-compound control (set as 100% activity) and the no-cell control (set as 0% activity; this value in the raw data reflects the background fluorescence of the dye alone).

CYP1B1 D333N = target: T2, CYP1B1 D333N (Homo sapiens, UniProt Q16678, D333N)
T2 sequence (Q16678 1-543 D333N): T1 sequence (Q16678 1-543 F134L) with L134F, D333N
Source text: as §1, §2, §3

CYP1B1 S127A = target: T3, CYP1B1 S127A (Homo sapiens, UniProt Q16678, S127A)
T3 sequence (Q16678 1-543 S127A): T1 sequence (Q16678 1-543 F134L) with S127A, L134F
Source text: as §1, §2, §3

CYP1B1 Q332E = target: T4, CYP1B1 Q332E (Homo sapiens, UniProt Q16678, Q332E)
T4 sequence (Q16678 1-543 Q332E): T1 sequence (Q16678 1-543 F134L) with L134F, Q332E
Source text: as §1, §2, §3

CYP1B1 S269A = target: T5, CYP1B1 S269A (Homo sapiens, UniProt Q16678, S269A)
T5 sequence (Q16678 1-543 S269A): T1 sequence (Q16678 1-543 F134L) with L134F, S269A
Source text: as §1, §2, §3

O=c1cc(-c2ccccc2)oc2c1ccc1ccccc12 [ANF, α-naphthoflavone]
logSI F134L (CYP1B1 F134L): -0.301 | logSI D333N (CYP1B1 D333N): 1.497 | logSI S127A (CYP1B1 S127A): -1.15 | logSI Q332E (CYP1B1 Q332E): 0.906 | logSI S269A (CYP1B1 S269A): 0
